From PubChem BioAssay (NCI)
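Five compound concentrations were applied to cells in 96-well plates for 48 hours; endpoints were derived by simple linear interpolation of the resulting dose-response curve. Abbreviation: GI50, concentration required for 50% inhibition of growth. The concentration for full growth arrest is given as TGI.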

Key:
Assay in all cases: DTP human tumour cell line panel, 48 h
[1] = test system: SK-MEL-28 melanoma
[2] = test system: MCF7 breast
[3] = test system: HCC-2998 colon
[4] = test system: NCI-H23 lung
[5] = test system: RPMI-8226 leukemia
[6] = test system: NCI/ADR-RES ovarian
[7] = test system: SNB-75 CNS
[8] = test system: 786-0 renal
[9] = test system: KM12 colon
[10] = test system: OVCAR-8 ovarian
[11] = test system: HS 578T breast
[12] = test system: HT29 colon
[13] = test system: DU-145 prostate
[14] = test system: OVCAR-4 ovarian
[15] = test system: HOP-92 NSCLC
[16] = test system: OVCAR-5 ovarian
[17] = test system: IGROV1 ovarian
[18] = test system: HOP-62 NSCLC
[19] = test system: SF-268 CNS
[20] = test system: T-47D breast
[21] = test system: ACHN renal
[22] = test system: PC-3 prostate
[23] = test system: SR leukemia
[24] = test system: SNB-19 CNS
[25] = test system: MOLT-4 leukemia
[26] = test system: SW-620 colon
[27] = test system: UACC-62 melanoma
[28] = test system: SF-295 CNS
[29] = test system: K-562 leukemia
[30] = test system: U251 CNS
[31] = test system: CCRF-CEM leukemia
[32] = test system: SF-539 CNS
[33] = test system: SK-MEL-5 melanoma
[34] = test system: A549 NSCLC
[35] = test system: MDA-MB-435
[36] = test system: M14 melanoma
[37] = test system: COLO 205 colon
[38] = test system: TK-10 renal
[39] = test system: EKVX NSCLC
[40] = test system: MALME-3M melanoma
[41] = test system: SN12C renal
[42] = test system: A498 renal
[43] = test system: OVCAR-3 ovarian
[44] = test system: HCT-116 colon
[45] = test system: MDA-MB-231 breast
[46] = test system: CAKI-1 renal
[47] = test system: NCI-H460 lung
[48] = test system: UACC-257 melanoma
[49] = test system: NCI-H522 lung
[50] = test system: BT-549 breast
[51] = test system: SK-OV-3 ovarian
[52] = test system: UO-31 renal
[53] = test system: HL-60(TB) leukemia
[54] = test system: SK-MEL-2 melanoma
[55] = test system: HCT-15 colon
[56] = test system: LOX IMVI melanoma

COc1cc(C2=NOC(c3cc(OC)c(OC)c(OC)c3)C2)ccc1OCCCCOc1cc2c(cc1OC)C(=O)N1CCC[C@H]1C=N2 (stereo partly specified)
GI50 [1]: 229 nM
TGI [1]: 490 nM
GI50 [2]: 255 nM
TGI [2]: 24400 nM
GI50 [3]: 192 nM
TGI [3]: 367 nM
GI50 [4]: 241 nM
TGI [4]: 559 nM
GI50 [5]: 271 nM
TGI [5]: 682 nM
GI50 [6]: 2820 nM
TGI [6]: 9350 nM
GI50 [7]: 350 nM
TGI [7]: 1600 nM
GI50 [8]: 282 nM
TGI [8]: 913 nM
GI50 [9]: 298 nM
TGI [9]: 882 nM
GI50 [10]: 390 nM
TGI [10]: 10900 nM
GI50 [11]: 234 nM
TGI [11]: 681 nM
GI50 [12]: 358 nM
TGI [12]: > 33200 nM
GI50 [13]: 432 nM
TGI [13]: 3280 nM
GI50 [14]: 439 nM
TGI [14]: 8640 nM
GI50 [15]: 339 nM
TGI [15]: 3080 nM
GI50 [16]: 400 nM
TGI [16]: 1260 nM
GI50 [17]: 243 nM
TGI [17]: 537 nM
GI50 [18]: 290 nM
TGI [18]: 709 nM
GI50 [19]: 400 nM
TGI [19]: 5680 nM
GI50 [20]: 481 nM
GI50 [21]: 243 nM
TGI [21]: 523 nM
GI50 [22]: 347 nM
TGI [22]: 3100 nM
GI50 [23]: 279 nM
GI50 [24]: 1310 nM
GI50 [25]: 299 nM
GI50 [26]: 246 nM
TGI [26]: 855 nM
GI50 [27]: 171 nM
TGI [27]: 335 nM
GI50 [28]: 327 nM
TGI [28]: 1280 nM
GI50 [29]: 1720 nM
GI50 [30]: 315 nM
TGI [30]: 1100 nM
GI50 [31]: 164 nM
TGI [31]: 466 nM
GI50 [32]: 277 nM
TGI [32]: 894 nM
GI50 [33]: 168 nM
TGI [33]: 319 nM
GI50 [34]: 348 nM
TGI [34]: 11900 nM
GI50 [35]: 179 nM
TGI [35]: 371 nM
GI50 [36]: 206 nM
TGI [36]: 432 nM
GI50 [37]: 245 nM
TGI [37]: 586 nM
GI50 [38]: 273 nM
TGI [38]: 704 nM
GI50 [39]: 471 nM
TGI [39]: 5430 nM
GI50 [40]: 197 nM
TGI [40]: 364 nM
GI50 [41]: 358 nM
TGI [41]: 3510 nM
GI50 [42]: 194 nM
TGI [42]: 396 nM
GI50 [43]: 322 nM
TGI [43]: 2510 nM
GI50 [44]: 216 nM
TGI [44]: 575 nM
GI50 [45]: 235 nM
TGI [45]: 750 nM
GI50 [46]: 245 nM
TGI [46]: 631 nM
GI50 [47]: 275 nM
GI50 [48]: 286 nM
TGI [48]: 727 nM
GI50 [49]: 217 nM
TGI [49]: 2130 nM
GI50 [50]: 156 nM
TGI [50]: 385 nM
GI50 [51]: 446 nM
TGI [51]: 3810 nM
GI50 [52]: 239 nM
TGI [52]: 745 nM
GI50 [53]: 309 nM
TGI [53]: 6500 nM
GI50 [54]: 241 nM
TGI [54]: 612 nM
GI50 [55]: 1460 nM
TGI [55]: 5430 nM
GI50 [56]: 215 nM
TGI [56]: 495 nM
